The values that follow are results of earlier work, collected in patent US7745427B2, “CGRP receptor antagonists” (Merck Sharp & Dohme Corp., priority 2004, dated 2010).

Series [1] deals with acute attacks of migraine. The note with it: clinical trials; Olesen et al. 2004.
For series [2], the system named is facial blood flow. The note with it: marmoset; Doods et al. 2000.
The test system of the next series is middle meningeal artery. The note with it: rats, prior administration; Williamson et al. 1997.
Series [3] has as its system facial blood flow. The note with it: rat; Escott et al. 1995.

No end group written: not given here.

For the compound `NCCCC[C@H](NC(=O)[C@@H](Cc1cc(Br)c(O)c(Br)c1)NC(=O)N1CCC(N2Cc3ccccc3NC2=O)CC1)C(=O)N1CCN(c2ccncc2)CC1` [BIBN4096BS], in series [1], the “treating acute attacks of migraine” value is recorded as “effective”. For the same compound, the “increase in facial blood flow” value with facial blood flow [2] is recorded as “blocked”.

Consider “CGRP(8-37): "a peptide CGRP antagonist" (VTHRLAGLLSRSGGVVKNNFVPTNVGSKAF; ends and bridges not checked; UniProt P06881 90-119, looked up, fragment)”, for which, in the series on middle meningeal artery, the “increase in diameter of the middle meningeal artery” value is “blocked”. Also, the “increased facial blood flow” value in the series with facial blood flow [3] was “inhibited”.
